pIC50: −log10 of the molar value. “And” between values parts separate entries of the source, which are not always exact repeats. Identical values can stand only once.

The test system of the assay is 171881-019-R-J1-PDC complex spheroid growth, % test/control. Kind of assay: Anticancer human tumor 171881-019-R-J1-PDC patient-derived invasive breast carcinoma cell line growth inhibition [Asc]. The conditions noted are these: for viability, T/C: stronger effect = lower value. In outline: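 Tumor cells were grown as multicellular spheroids with stromal HUVEC and mesenchymal stem cells and treated singly or in combination. Concentrations fell in half-log steps from the clinical Cmax, or from 10 microM where none was known.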
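For viability, T/C in this document: spheroids exposed to compounds for 7 days.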

For `Cn1ncnc1[C@H]1c2n[nH]c(=O)c3cc(F)cc(c23)N[C@@H]1c1ccc(F)cc1`, the viability, T/C is, setting by setting: (compound 0.000316 µM) 81.3% and 100% and 94.1%; (compound 0.001 µM) 86.7% and 107% and 93%; (compound 0.00316 µM) 90% and 88.5% and 79.2%; (compound 0.01 µM) 92.8% and 101% and 84.1%; (compound 0.0316 µM) 86.6% and 86.8% and 99.6%; (compound 0.1 µM) 91.4% and 81% and 106%. For the same compound, for the setting “curve of compound”, the pIC50 is under 7.00.

For orientation: viability, T/C means the result in the treated group divided by that in the control group, in per cent. Broadly, the pIC50 is the negative decadic logarithm of the IC50, by convention in mol/L.

Source of the values: PubChem BioAssay AID1963428 (Molecular Pharmacology Branch, DTP, NCI, 2024).
